In patent US9382258B2, “Agents for treating pain and uses thereof” (AbbVie Inc., priority 2012, dated 2016) one finds IC50 data, which are given here for 20 compounds.

As usually defined, the IC50 is the concentration that gives 50% inhibition.

Structures are written as SMILES.

The target in the assay is T1, human Cav2.2 (Homo sapiens, UniProt Q00975).
T1 construct: cells endogenously expressing human Cav2.2; endogenous in cells; host or cells: IMR32 cells
T1 sequence (Q00975 whole entry): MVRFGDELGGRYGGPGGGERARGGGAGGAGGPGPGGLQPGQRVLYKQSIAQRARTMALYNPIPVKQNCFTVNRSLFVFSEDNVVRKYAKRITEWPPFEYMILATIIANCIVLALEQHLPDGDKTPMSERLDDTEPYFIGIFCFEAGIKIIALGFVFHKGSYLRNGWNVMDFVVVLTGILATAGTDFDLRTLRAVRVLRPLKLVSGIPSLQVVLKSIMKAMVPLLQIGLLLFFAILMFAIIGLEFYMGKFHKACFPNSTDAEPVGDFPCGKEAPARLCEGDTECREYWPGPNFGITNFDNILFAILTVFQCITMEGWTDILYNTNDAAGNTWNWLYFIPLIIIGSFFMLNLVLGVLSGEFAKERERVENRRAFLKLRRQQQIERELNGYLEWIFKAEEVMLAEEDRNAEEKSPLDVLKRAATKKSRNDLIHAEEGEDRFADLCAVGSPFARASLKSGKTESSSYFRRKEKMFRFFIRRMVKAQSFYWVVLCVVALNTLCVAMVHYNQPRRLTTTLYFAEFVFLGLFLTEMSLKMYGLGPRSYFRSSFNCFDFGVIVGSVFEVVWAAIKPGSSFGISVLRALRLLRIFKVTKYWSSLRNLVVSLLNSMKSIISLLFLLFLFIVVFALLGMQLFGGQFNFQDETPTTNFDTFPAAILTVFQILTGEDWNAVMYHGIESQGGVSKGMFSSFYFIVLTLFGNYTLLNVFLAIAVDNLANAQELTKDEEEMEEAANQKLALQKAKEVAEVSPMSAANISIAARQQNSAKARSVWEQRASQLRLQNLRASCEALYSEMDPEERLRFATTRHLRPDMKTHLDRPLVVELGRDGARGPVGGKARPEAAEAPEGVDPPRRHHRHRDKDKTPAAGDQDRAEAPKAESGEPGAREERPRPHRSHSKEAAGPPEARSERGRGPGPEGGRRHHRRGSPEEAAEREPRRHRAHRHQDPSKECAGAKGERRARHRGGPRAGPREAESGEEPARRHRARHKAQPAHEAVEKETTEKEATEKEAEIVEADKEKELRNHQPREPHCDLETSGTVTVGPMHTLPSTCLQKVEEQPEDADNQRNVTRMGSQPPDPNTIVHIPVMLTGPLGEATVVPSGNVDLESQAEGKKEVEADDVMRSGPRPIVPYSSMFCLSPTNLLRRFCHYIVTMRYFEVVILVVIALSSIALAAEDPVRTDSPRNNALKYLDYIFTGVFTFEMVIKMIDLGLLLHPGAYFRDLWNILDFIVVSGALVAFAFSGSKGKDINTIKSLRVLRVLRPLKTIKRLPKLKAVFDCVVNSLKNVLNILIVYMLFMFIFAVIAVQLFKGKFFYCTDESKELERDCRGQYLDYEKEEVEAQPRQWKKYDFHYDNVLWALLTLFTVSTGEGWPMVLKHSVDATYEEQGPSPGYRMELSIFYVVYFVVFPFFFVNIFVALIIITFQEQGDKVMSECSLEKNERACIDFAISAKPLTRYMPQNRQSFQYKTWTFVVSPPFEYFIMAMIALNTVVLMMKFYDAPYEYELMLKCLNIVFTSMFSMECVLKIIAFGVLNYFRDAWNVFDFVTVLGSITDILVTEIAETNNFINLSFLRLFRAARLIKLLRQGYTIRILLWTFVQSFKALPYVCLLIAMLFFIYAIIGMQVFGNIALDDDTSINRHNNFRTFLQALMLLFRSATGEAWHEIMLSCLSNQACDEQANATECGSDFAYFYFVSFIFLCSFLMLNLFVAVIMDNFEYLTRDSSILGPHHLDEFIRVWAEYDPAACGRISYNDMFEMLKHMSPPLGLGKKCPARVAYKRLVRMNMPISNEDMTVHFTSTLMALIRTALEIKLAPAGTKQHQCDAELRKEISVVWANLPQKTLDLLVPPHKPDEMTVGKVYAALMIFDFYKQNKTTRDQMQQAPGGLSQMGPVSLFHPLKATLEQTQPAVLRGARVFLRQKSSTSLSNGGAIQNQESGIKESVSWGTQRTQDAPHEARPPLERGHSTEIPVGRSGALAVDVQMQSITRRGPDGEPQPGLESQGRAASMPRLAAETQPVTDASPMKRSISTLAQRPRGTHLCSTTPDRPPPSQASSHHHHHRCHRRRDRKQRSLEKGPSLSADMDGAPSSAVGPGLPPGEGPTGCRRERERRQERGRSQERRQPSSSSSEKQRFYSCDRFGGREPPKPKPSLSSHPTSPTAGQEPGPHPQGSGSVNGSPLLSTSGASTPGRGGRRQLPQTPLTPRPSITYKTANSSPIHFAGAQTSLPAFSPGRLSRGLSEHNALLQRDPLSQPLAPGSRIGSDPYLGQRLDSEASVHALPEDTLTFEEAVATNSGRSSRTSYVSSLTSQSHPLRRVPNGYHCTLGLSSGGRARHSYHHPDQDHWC
T1 sequence (P54284 whole entry partner): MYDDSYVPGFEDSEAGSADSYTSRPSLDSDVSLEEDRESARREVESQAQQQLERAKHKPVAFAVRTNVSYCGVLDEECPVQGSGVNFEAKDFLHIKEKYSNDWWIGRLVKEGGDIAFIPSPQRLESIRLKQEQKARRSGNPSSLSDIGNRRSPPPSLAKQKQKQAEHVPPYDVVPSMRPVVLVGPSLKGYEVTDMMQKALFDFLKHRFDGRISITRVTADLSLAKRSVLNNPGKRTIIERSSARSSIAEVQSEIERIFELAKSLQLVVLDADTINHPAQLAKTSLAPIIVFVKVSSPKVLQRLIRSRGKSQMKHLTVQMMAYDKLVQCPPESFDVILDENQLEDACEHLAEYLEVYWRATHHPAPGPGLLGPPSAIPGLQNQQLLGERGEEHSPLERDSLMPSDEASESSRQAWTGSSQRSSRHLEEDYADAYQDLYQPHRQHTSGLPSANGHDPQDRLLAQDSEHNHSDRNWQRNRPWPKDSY
T1 sequence (P54289 25-956 partner limits assumed): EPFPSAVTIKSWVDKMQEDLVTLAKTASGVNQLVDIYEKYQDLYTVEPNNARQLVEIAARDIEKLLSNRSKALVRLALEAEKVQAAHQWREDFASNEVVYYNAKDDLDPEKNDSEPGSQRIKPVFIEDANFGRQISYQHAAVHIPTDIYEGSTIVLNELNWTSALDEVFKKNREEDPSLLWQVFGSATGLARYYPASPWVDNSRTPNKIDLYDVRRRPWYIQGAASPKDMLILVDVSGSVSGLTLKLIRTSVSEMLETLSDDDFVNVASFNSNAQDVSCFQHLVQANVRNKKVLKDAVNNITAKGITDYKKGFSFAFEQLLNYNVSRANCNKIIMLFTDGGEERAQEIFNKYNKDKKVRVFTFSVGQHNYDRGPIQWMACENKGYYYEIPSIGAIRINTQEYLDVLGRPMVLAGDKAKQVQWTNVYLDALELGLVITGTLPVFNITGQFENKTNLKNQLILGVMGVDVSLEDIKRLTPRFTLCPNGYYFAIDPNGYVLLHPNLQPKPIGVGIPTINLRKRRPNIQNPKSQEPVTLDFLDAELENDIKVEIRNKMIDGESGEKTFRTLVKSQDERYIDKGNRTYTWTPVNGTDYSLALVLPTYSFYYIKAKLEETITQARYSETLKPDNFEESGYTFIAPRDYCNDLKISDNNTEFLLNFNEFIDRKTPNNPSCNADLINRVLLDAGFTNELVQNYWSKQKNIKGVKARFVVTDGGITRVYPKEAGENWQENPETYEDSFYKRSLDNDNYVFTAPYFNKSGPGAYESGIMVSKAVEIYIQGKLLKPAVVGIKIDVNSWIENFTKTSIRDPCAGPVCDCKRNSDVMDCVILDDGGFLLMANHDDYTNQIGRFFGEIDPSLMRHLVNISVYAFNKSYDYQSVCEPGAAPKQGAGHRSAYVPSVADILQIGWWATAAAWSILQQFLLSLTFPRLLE
T1 sequence (P54289 957-1103 partner limits assumed): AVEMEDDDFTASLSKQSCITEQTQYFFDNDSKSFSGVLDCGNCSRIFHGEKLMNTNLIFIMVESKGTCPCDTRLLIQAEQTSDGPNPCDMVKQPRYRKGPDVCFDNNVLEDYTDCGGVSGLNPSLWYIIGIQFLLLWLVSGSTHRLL
Nature of the assay: Calcium flux (FLIPR, Calcium 4 dye) in IMR32 cells endogenously expressing human Cav2.2. Type of assay: cell-based. As to conditions: 60 minute pre-incubation, 2 μM nifedipine to block L-type channels, depolarized with 80 mM KCl, 5 mM CaCl2, average of n≥2 runs unless marked *. The method, then: Compounds were tested for effect on calcium flux in cells endogenously expressing human Cav2.2. Specifically, IMR32 cells endogenously expressing human Cav2.2 were assayed for Ca^2+ influx using a no-wash calcium indicator dye (Calcium 4 dye: Molecular Probes) and FLIPR technology (Lubin, M L; et al. Assay and Drug Development Technologies, 2006, 4(6), 689-694). The IMR32 cells were maintained in MEM media containing 10% (v/v) FBS, 1% (v/v) antibiotic/antimitotic, 1% (v/v) sodium pyruvate and 1% (v/v) MEM NEAA. Following dissociation in 0.05% (v/v) trypsin/EDTA, cells were seeded into black 1×96-well plates (Corning Cellbind) at a density of 1−1.2×10^5 cells/well and incubated in the maintenance media above for 48 hours at 37° C. Immediately prior to performing the assay the media was removed and cells were loaded for 1.5 hours with 1× Calcium 4 dye prepared in HBSS (137 mM NaCl, 5.4 mM KCl, 0.25 mM Na2HPO4, 0.44 mM KH2PO4, 1.3 mM CaCl2, 1 mM MgSO4, 4.2 mM NaHCO3) containing HEPES pH 7.4 at room temperature. After dye loading and a subsequent 60 minute pre-incubation with compounds (full log dilutions from 10 μM to 0.1 nM) in the presence of 1.3 mM CaCl2 and 2 μM nifedipine to block endogenous L-type channels, the external Ca^2+ concentration was increased to 5 mM CaCl2 and the cells concomitantly depolarized with 80 mM KCl to assay channel activity.
To determine the IC50 values, the percent inhibition of the compound at each concentration was determined relative to the activity in the absence of inhibitor, and data was fitted using non-linear regression sigmoidal dose response curve analysis with GraphPad Prism®. Unless otherwise indicated (*), the reported values are average values from at least two runs (i.e., n≧2).
`O=S(=O)(c1ccc(C(F)(F)F)cc1)N1CCCN2C[C@H](Oc3cnc(C4CC4)cn3)C[C@H]2C1` [Example 2, (8R,9aS)-8-[(5-cyclopropylpyrazin-2-yl)oxy]-2-{[4-(trifluoromethyl)phenyl]sulfonyl}octahydro-1H-pyrrolo[1,2-a][1,4]diazepane]: the IC50 stood at 200 nM.

Take `O=C1[C@@H](Oc2ccc(C(F)(F)F)cn2)C[C@H]2CN(S(=O)(=O)c3cccc(C(F)(F)F)c3)CCCN12` [Example 3, (8S,9aS)-2-{[3-(trifluoromethyl)phenyl]sulfonyl}-8-{[5-(trifluoromethyl)pyridin-2-yl]oxy}octahydro-7H-pyrrolo[1,2-a][1,4]diazepin-7-one]: the IC50 came out at 1250 nM.

Turning to `O=C1[C@H](Oc2ccc(C(F)(F)F)cn2)C[C@H]2CN(S(=O)(=O)c3cccc(C(F)(F)F)c3)CCCN12` [Example 4, (8R,9aS)-2-{[3-(trifluoromethyl)phenyl]sulfonyl}-8-{[5-(trifluoromethyl)pyridin-2-yl]oxy}octahydro-7H-pyrrolo[1,2-a][1,4]diazepin-7-one], the IC50 was found to be 880 nM.

Turning to `O=C1[C@@H](Oc2ccc(C(F)(F)F)cn2)C[C@H]2CN(S(=O)(=O)c3ccc(C(F)(F)F)cc3)CCCN12` [Example 5, (8S,9aS)-2-{[4-(trifluoromethyl)phenyl]sulfonyl}-8-{[5-(trifluoromethyl)pyridin-2-yl]oxy}octahydro-7H-pyrrolo[1,2-a][1,4]diazepin-7-one], the IC50 amounted to 1760 nM.

As to `O=C1[C@H](Oc2ccc(C(F)(F)F)cn2)C[C@H]2CN(S(=O)(=O)c3ccc(C(F)(F)F)cc3)CCCN12` [Example 6, (8R,9aS)-2-{[4-(trifluoromethyl)phenyl]sulfonyl}-8-{[5-(trifluoromethyl)pyridin-2-yl]oxy}octahydro-7H-pyrrolo[1,2-a][1,4]diazepin-7-one], the IC50 is 910 nM.

`O=C(c1ccc(F)cc1)N1CCCN2C[C@H](Oc3cnc(C4CC4)cn3)C[C@H]2C1` [Example 8, [(8R,9aS)-8-[(5-cyclopropylpyrazin-2-yl)oxy]hexahydro-1H-pyrrolo[1,2-a][1,4]diazepin-2(3H)-yl](4-fluorophenyl)methanone]: the IC50 worked out at 3040 nM.

As for `O=C(c1cccc(OC(F)(F)F)c1)N1CCCN2C[C@H](Oc3cnc(C4CC4)cn3)C[C@H]2C1` [Example 9, [(8R,9aS)-8-[(5-cyclopropylpyrazin-2-yl)oxy]hexahydro-1H-pyrrolo[1,2-a][1,4]diazepin-2(3H)-yl][3-(trifluoromethoxy)phenyl]methanone], the IC50 is 1350 nM.

In the case of `O=C(c1cccc(C(F)(F)F)c1F)N1CCCN2C[C@H](Oc3cnc(C4CC4)cn3)C[C@H]2C1` [Example 10, [(8R,9aS)-8-[(5-cyclopropylpyrazin-2-yl)oxy]hexahydro-1H-pyrrolo[1,2-a][1,4]diazepin-2(3H)-yl][2-fluoro-3-(trifluoromethyl)phenyl]methanone], the IC50 came out at 920 nM.

For `O=C(c1ccc(C(F)(F)F)cn1)N1CCCN2C[C@H](Oc3cnc(C4CC4)cn3)C[C@H]2C1` [Example 11, [(8R,9aS)-8-[(5-cyclopropylpyrazin-2-yl)oxy]hexahydro-1H-pyrrolo[1,2-a][1,4]diazepin-2(3H)-yl][5-(trifluoromethyl)pyridin-2-yl]methanone], the IC50 turned out to be 9270 nM.

Consider `O=C(c1cccc(C(F)(F)F)n1)N1CCCN2C[C@H](Oc3cnc(C4CC4)cn3)C[C@H]2C1` [Example 12, [(8R,9aS)-8-[(5-cyclopropylpyrazin-2-yl)oxy]hexahydro-1H-pyrrolo[1,2-a][1,4]diazepin-2(3H)-yl][6-(trifluoromethyl)pyridin-2-yl]methanone], for which the IC50 was found to be 6220 nM.

`O=C(c1ccc(F)c(C(F)(F)F)c1)N1CCCN2C[C@H](Oc3cnc(C4CC4)cn3)C[C@H]2C1` [Example 14, [(8R,9aS)-8-[(5-cyclopropylpyrazin-2-yl)oxy]hexahydro-1H-pyrrolo[1,2-a][1,4]diazepin-2(3H)-yl][4-fluoro-3-(trifluoromethyl)phenyl]methanone]: the IC50 worked out at 1450 nM.

Take `O=C(c1ccc(C(F)(F)F)c(F)c1)N1CCCN2C[C@H](Oc3cnc(C4CC4)cn3)C[C@H]2C1` [Example 15, [(8R,9aS)-8-[(5-cyclopropylpyrazin-2-yl)oxy]hexahydro-1H-pyrrolo[1,2-a][1,4]diazepin-2(3H)-yl][3-fluoro-4-(trifluoromethyl)phenyl]methanone]: the IC50 stood at 1330 nM.

For `O=C(c1ccc(F)c(Cl)c1)N1CCCN2C[C@H](Oc3cnc(C4CC4)cn3)C[C@H]2C1` [Example 16, (3-chloro-4-fluorophenyl)[(8R,9aS)-8-[(5-cyclopropylpyrazin-2-yl)oxy]hexahydro-1H-pyrrolo[1,2-a][1,4]diazepin-2(3H)-yl]methanone], the IC50 was found to be 2300 nM.

On to `O=C(c1cc(C(F)(F)F)ccc1F)N1CCCN2C[C@H](Oc3cnc(C4CC4)cn3)C[C@H]2C1` [Example 17, [(8R,9aS)-8-[(5-cyclopropylpyrazin-2-yl)oxy]hexahydro-1H-pyrrolo[1,2-a][1,4]diazepin-2(3H)-yl][2-fluoro-5-(trifluoromethyl)phenyl]methanone], for which the IC50 is 1580 nM.

Take `O=C(c1ccc(C(F)(F)F)cc1F)N1CCCN2C[C@H](Oc3cnc(C4CC4)cn3)C[C@H]2C1` [Example 18, [(8R,9aS)-8-[(5-cyclopropylpyrazin-2-yl)oxy]hexahydro-1H-pyrrolo[1,2-a][1,4]diazepin-2(3H)-yl][2-fluoro-4-(trifluoromethyl)phenyl]methanone]: the IC50 is 1190 nM.

As to `FC(F)(F)c1cccc(N2CCCN3C[C@H](Oc4cnc(C5CC5)cn4)C[C@H]3C2)n1` [Example 20, (8R,9aS)-8-[(5-cyclopropylpyrazin-2-yl)oxy]-2-[6-(trifluoromethyl)pyridin-2-yl]octahydro-1H-pyrrolo[1,2-a][1,4]diazepane], the IC50 was 750 nM.

On to `O=C1[C@H](Oc2cnc(C3CC3)cn2)C[C@H]2CN(c3ccc(C(F)(F)F)cn3)CCCN12` [Example 21, (8R,9aS)-8-[(5-cyclopropylpyrazin-2-yl)oxy]-2-[5-(trifluoromethyl)pyridin-2-yl]octahydro-7H-pyrrolo[1,2-a][1,4]diazepin-7-one], for which the IC50 worked out at 3470 nM.

On to `O=C1[C@@H]2C[C@@H](Oc3cnc(C4CC4)cn3)CN2CCCN1Cc1cccc(C(F)(F)F)c1` [Example 22, (8R,9aS)-8-[(5-cyclopropylpyrazin-2-yl)oxy]-2-[3-(trifluoromethyl)benzyl]octahydro-1H-pyrrolo[1,2-a][1,4]diazepin-1-one], for which the IC50 worked out at 1720 nM.

Take `O=C1[C@@H]2C[C@@H](Oc3cnc(C4CC4)cn3)CN2CCCN1Cc1ccc(C(F)(F)F)cc1` [Example 23, (8R,9aS)-8-[(5-cyclopropylpyrazin-2-yl)oxy]-2-[4-(trifluoromethyl)benzyl]octahydro-1H-pyrrolo[1,2-a][1,4]diazepin-1-one]: the IC50 is 980 nM.

With `O=C1[C@H]2C[C@@H](Oc3cnc(C4CC4)cn3)CN2CCCN1Cc1ccc(C(F)(F)F)cc1` [Example 24, (8R,9aR)-8-[(5-cyclopropylpyrazin-2-yl)oxy]-2-[4-(trifluoromethyl)benzyl]octahydro-1H-pyrrolo[1,2-a][1,4]diazepin-1-one], the IC50 was found to be 2940 nM.
